These results are taken from paper PMC9366597 (RSC Advances, 2022).

Where two headings read alike, the source gives them in different places.

A word on the IC50: it is the concentration needed to halve the response being measured. As usually defined, the Papp is the rate of passage across a membrane or cell layer, normalised by area and donor concentration. The low end stands for poor permeation, the high end for ready permeation.

A short description of data set [1]: PAMPA-BBB permeation assay. To be noted: for Prediction (PAMPA-BBB) (CNS+, CNS−): class from Pe; for Papp at 20 h: PAMPA, pH 7.4.
The target of data set [2] is T1, COX-2 (Homo sapiens, UniProt P35354).
T1 sequence (P35354 18-604): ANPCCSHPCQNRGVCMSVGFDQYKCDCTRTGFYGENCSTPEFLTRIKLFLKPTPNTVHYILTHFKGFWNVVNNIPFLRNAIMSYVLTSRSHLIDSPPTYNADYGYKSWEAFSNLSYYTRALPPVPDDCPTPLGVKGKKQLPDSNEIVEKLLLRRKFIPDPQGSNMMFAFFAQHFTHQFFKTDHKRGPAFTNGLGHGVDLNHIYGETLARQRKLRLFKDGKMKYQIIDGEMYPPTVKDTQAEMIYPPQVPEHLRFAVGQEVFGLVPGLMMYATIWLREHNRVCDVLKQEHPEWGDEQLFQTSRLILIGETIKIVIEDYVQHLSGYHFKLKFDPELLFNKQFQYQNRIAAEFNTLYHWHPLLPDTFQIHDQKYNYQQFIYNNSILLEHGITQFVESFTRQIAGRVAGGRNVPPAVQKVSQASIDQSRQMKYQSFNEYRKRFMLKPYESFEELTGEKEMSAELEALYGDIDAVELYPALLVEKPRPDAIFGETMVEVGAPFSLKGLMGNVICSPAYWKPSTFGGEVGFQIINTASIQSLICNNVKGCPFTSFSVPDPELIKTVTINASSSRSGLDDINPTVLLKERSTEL
Nature of the data set: biochemical. The data set is classed as biochemical.

The target in data set [3] is T2, 5-LOX (Glycine max, UniProt P08170).
T2 sequence (P08170 1-839): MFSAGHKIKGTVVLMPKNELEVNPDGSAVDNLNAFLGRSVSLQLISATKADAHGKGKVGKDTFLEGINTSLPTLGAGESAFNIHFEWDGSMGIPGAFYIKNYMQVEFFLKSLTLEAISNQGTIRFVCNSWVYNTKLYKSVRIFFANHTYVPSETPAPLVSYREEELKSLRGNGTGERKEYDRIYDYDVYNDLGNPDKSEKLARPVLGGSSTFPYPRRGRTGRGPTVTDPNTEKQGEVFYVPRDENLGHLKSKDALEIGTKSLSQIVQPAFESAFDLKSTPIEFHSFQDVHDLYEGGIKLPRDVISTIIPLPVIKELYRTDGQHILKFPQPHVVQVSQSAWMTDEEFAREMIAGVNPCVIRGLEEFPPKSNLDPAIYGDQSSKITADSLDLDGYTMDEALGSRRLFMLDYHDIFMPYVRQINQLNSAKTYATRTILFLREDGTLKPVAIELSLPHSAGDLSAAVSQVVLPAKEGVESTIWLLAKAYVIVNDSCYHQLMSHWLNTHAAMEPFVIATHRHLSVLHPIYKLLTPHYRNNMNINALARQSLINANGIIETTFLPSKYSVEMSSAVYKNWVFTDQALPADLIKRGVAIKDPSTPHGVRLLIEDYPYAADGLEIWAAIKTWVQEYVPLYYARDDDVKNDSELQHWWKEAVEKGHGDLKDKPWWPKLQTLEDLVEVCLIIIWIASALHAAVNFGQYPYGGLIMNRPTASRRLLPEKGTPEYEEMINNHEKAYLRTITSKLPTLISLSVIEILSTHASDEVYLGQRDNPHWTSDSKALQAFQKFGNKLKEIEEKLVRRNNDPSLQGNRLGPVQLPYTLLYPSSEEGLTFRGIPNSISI
Description: 5-LOX inhibition assay. Format: biochemical, soybean.

For data set [4], the target named is eeAChE (Electrophorus electricus, UniProt O42275). Nature of the data set: AChE inhibition, modified Ellman's method. Conditions: for SI (IC50 eqBChE/IC50 eeAChE): selectivity index toward eeAChE. The data set is classed as biochemical, Electrophorous electricus.
Sequence of eeAChE (O42275 24-633): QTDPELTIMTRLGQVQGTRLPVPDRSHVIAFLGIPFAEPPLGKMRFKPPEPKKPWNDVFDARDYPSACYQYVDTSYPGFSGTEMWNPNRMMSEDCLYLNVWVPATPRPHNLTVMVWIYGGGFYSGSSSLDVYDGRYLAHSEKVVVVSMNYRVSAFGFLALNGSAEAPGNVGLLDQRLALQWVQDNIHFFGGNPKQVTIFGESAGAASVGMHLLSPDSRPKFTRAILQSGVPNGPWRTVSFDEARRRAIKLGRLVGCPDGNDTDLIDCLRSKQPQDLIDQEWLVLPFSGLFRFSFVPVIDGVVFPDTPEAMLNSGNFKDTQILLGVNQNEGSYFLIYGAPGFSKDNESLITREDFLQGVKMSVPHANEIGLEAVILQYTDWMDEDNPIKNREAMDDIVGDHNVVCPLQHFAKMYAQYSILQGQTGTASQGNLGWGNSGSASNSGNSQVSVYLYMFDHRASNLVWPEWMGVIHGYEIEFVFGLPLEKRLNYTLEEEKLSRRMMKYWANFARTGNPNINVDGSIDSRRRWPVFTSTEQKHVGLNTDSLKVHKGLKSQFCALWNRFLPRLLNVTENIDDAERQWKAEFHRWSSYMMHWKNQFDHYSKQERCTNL
Data set [5] addresses eqBChE (Equus caballus, UniProt P81908). Nature of the data set: BChE inhibition, modified Ellman's method. Format: biochemical, Equine. On the technique in general: Ellman's reagent forms a yellow product with free thiols.
The target in data set [6] is T3, hMAO-A (Homo sapiens, UniProt P21397).
T3 sequence (P21397 1-527): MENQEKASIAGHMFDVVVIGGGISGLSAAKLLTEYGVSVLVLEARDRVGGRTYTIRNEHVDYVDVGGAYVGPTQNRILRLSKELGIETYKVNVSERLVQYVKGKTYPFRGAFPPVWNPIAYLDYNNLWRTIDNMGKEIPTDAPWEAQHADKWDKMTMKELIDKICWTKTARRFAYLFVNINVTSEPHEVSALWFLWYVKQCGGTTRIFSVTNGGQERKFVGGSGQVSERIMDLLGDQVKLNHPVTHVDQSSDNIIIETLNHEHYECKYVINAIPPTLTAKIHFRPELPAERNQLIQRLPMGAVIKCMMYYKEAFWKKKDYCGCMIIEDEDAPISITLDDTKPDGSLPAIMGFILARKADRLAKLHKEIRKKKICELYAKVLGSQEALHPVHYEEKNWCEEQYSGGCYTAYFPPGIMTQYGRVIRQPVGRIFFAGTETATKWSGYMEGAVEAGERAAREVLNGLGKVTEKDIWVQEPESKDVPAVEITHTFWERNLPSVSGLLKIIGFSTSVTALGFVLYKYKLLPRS
Nature of the data set: MAO-A inhibition, fluorometric method. The data set is classed as biochemical.

The target of data set [7] is T4, hMAO-B (Homo sapiens, UniProt P27338).
T4 sequence (P27338 1-520): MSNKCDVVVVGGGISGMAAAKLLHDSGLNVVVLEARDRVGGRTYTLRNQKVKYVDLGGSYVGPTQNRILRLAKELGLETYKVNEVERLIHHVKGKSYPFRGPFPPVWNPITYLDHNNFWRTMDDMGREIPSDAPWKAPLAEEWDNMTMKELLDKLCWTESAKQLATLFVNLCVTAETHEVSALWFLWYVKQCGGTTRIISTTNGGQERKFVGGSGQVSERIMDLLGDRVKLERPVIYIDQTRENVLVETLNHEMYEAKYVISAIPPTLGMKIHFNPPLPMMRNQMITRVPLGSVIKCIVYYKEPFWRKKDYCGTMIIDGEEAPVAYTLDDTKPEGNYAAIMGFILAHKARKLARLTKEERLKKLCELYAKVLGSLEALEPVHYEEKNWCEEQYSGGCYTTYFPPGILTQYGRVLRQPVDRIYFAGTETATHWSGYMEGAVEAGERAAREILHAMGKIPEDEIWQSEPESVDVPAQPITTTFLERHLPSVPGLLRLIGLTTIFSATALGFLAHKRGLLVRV
Description: MAO-B inhibition, fluorometric method. The data set is classed as biochemical. Conditions: for SI (IC50 hMAO-A/IC50 hMAO-B): selectivity index toward hMAO-B.

The test system of data set [8] is neuroblastoma SH-SY5Y cells. Nature of the data set: MTT assay for neurotoxicity. The data set is classed as cell-based. Conditions: 1, 10, 20, 40 and 80 μM, incubation for 48 hours.
Data set [9] in a line: In vivo acute toxicity study. To be noted: doses ranging from 50 to 2000 mg kg^−1 body weight.

Sequence of eqBChE (P81908 whole entry): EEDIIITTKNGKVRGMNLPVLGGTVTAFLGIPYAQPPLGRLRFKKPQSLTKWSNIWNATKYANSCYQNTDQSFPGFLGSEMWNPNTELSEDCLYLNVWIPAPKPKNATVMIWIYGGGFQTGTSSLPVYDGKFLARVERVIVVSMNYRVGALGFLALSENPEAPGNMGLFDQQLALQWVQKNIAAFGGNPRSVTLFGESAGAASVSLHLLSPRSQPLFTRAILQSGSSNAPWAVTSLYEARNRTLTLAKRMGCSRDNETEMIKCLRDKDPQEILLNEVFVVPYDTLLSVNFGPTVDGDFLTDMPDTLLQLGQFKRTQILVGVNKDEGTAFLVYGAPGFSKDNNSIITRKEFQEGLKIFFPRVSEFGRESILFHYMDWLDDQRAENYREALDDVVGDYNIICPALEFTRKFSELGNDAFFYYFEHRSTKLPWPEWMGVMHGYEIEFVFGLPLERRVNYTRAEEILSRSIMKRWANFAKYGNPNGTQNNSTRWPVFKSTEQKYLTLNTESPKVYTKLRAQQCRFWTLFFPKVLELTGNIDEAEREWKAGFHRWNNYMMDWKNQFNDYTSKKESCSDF

On to `Cc1nnc2n1-c1ccc(Cl)cc1C(c1ccccc1)=NC2` [Alprazolam, reference compound], for which, in [1], the “Prediction (PAMPA-BBB) (CNS+, CNS−)” value was “CNS+ (‘CNS+’ (prediction of high BBB permeation); Pe (10^−6 cm s^−1) > 4.39)”.
With `Sc1nnc(Cc2ccccc2Nc2c(Cl)cccc2Cl)n1-c1ccc(Cl)c(Cl)c1` [Compound 12, 5-(2-(2,6-dichlorophenylamino)benzyl)-4-(3,4 dichlorophenyl)-4H-1,2,4-triazole-3-thiol], the IC50 came to 0.69 ± 0.13 µM in data set [2]; 75.5 ± 1.57 µM in [3]; 2.58 ± 0.41 µM in data set [4]; 56.4 ± 1.28 µM in data set [5]; 11.3 ± 1.01 µM in data set [6]; 13.1 ± 1.22 µM in [7]. For the same molecule, in data set [4], the “SI (IC50 eqBChE/IC50 eeAChE)” value is reported as 21.8. In addition, the “SI (IC50 hMAO-A/IC50 hMAO-B)” value in data set [7] was found to be 0.8.
As to `NS(=O)(=O)c1ccc(NCSc2nnc(Cc3ccccc3Nc3c(Cl)cccc3Cl)n2-c2ccc(Cl)c(Cl)c2)cc1` [Compound 15, 4-((5-(2-(2,6-dichlorophenylamino)benzyl)-4-(3,4-dichlorophenyl)-4H-1,2,4-triazol-3-ylthio)methylamino)benzenesulfonamide], the IC50 in data set [2] turned out to be 0.16 ± 0.04 µM; in data set [3], 3.42 ± 0.21 µM; in data set [4], 0.11 ± 0.01 µM; in [5] it was 2.99 ± 0.33 µM; in data set [6], 1.21 ± 0.07 µM; in data set [7], 0.89 ± 0.33 µM. In data set [4], the “SI (IC50 eqBChE/IC50 eeAChE)” value is reported as 27.2. Also, in [7], the “SI (IC50 hMAO-A/IC50 hMAO-B)” value was 1.3. For the same molecule, in data set [8], the “Neurotoxicity (cell viability, MTT)” value is “low neurotoxicity”. Besides, the Acute toxicity outcome in data set [9] is recorded as “all animals were found alive”. The molecule further returned a Papp at 20 h in data set [1] of 6.36 ± 0.3 ×10⁻⁶ cm/s. Further, in data set [1], the “Prediction (PAMPA-BBB) (CNS+, CNS−)” value was “CNS+ (‘CNS+’ (prediction of high BBB permeation); Pe (10^−6 cm s^−1) > 4.39)”.
Turning to `COc1ccc(C(=O)CC2CC(=O)N(CCCSc3nnc(Cc4ccccc4Nc4c(Cl)cccc4Cl)n3-c3ccc(Cl)c(Cl)c3)C2=O)cc1` (stereo not shown) [Compound 31, 1-(3-((4-(3,4-Dichlorophenyl)-5-(2-((2,6-dichlorophenyl)amino)benzyl)-4H-1,2,4-triazol-3-yl)thio)propyl)-3-(2-(4-methoxyphenyl)-2-oxoethyl)pyrrolidine-2,5-dione], the IC50 in data set [3] is 51.3 ± 1.37 µM; in data set [4], 0.08 ± 0.01 µM; in data set [5], 48.1 ± 1.51 µM; in [6], 4.63 ± 0.31 µM; in data set [7], 0.024 ± 0.001 µM. Moreover, the “SI (IC50 eqBChE/IC50 eeAChE)” value in data set [4] worked out at 601.2. In addition, the “SI (IC50 hMAO-A/IC50 hMAO-B)” value in data set [7] is reported as 193. Also, the Acute toxicity outcome in [9] is reported as “all animals were found alive”.
For the molecule `O=C(CC1CC(=O)N(CCCSc2nnc(Cc3ccccc3Nc3c(Cl)cccc3Cl)n2-c2ccc(Cl)c(Cl)c2)C1=O)c1ccccc1` (stereo not shown) [Compound 32, 1-(3-((4-(3,4-Dichlorophenyl)-5-(2-((2,6-dichlorophenyl)amino)benzyl)-4H-1,2,4-triazol-3-yl)thio)propyl)-3-(2-oxo-2-phenylethyl)pyrrolidine-2,5-dione], the IC50 in data set [3] was determined as 48.3 ± 1.42 µM; in data set [4], 0.39 ± 0.08 µM; in data set [5], 3.39 ± 0.83 µM; in [6], 6.48 ± 0.39 µM; in [7], 0.106 ± 0.004 µM. In addition, the “SI (IC50 eqBChE/IC50 eeAChE)” value in data set [4] came to 8.7. In addition, the “SI (IC50 hMAO-A/IC50 hMAO-B)” value in data set [7] stood at 61.1.
Regarding `NS(=O)(=O)c1ccc(N2N=C(c3ccc(NC(=O)Cc4ccccc4Nc4c(Cl)cccc4Cl)cc3)CC2c2ccc(Cl)cc2)cc1` (stereo not shown) [Compound 39, N-{4-[5-(4-chlorophenyl)-1-(4-sulfamoylphenyl)-4,5-dihydro-1H-pyrazol-3-yl]phenyl}-2-{2-[(2,6-dichlorophenyl)amino]phenyl}acetamide], the 50% inhibitory concentration (IC50) in data set [2] is 0.6 ± 0.03 µM; in [3], 0.98 ± 0.01 µM; in data set [4], 0.03 ± 0.01 µM; in [5] it was 0.91 ± 0.16 µM; in data set [6], 0.61 ± 0.08 µM; in [7], 0.01 ± 0.001 µM. The “SI (IC50 eqBChE/IC50 eeAChE)” value in data set [4] was determined as 30.33. Moreover, the “SI (IC50 hMAO-A/IC50 hMAO-B)” value in [7] is recorded as 61. Besides, the “Neurotoxicity (cell viability, MTT)” value in data set [8] was “no neurotoxicity”. Also, the Acute toxicity outcome in [9] is given as “all animals were found alive”. Besides, the Papp at 20 h in [1] worked out at 7.55 ± 0.14 ×10⁻⁶ cm/s. In data set [1], the “Prediction (PAMPA-BBB) (CNS+, CNS−)” value is listed as “CNS+ (‘CNS+’ (prediction of high BBB permeation); Pe (10^−6 cm s^−1) > 4.39)”.
In the case of `CCn1cc(C(=O)O)c(=O)c2cc(F)c(N3CCNC(C)C3)c(F)c21` (stereo not shown) [Lomefloxacin, reference compound], in data set [1], the “Prediction (PAMPA-BBB) (CNS+, CNS−)” value is “CNS− (‘CNS−’ (prediction of low BBB permeation); Pe (10^−6 cm s^−1) < 1.78)”.
With “N-(2-((5-(4-(4aH-Phenothiazin-10(10aH)-yl)butylthio)-4-(3,4-dichlorophenyl)-4H-1,2,4-triazol-3-yl)methyl)phenyl)-2,6-dichlorobenzenamine [Compound 33]”, the IC50 came out at 23 ± 0.92 µM in data set [2] (read-out: IC50 (μM) ± SEM COX-2, NA = no activity found in tested concentration); 9.11 ± 0.08 µM in data set [3] (read-out: IC50 (μM) ± SEM 5-LOX); 0.05 µM in [4] (read-out: IC50 (μM) ± SEM eeAChE); 5.89 ± 1 µM in data set [5] (read-out: IC50 (μM) ± SEM eqBChE); 8.55 ± 0.26 µM in data set [6] (read-out: IC50 (μM) ± SEM hMAO-A); 0.13 ± 0.01 µM in [7] (read-out: IC50 (μM) ± SEM hMAO-B). Also, in data set [4], the “SI (IC50 eqBChE/IC50 eeAChE)” value amounted to 117.8. In addition, in data set [7], the “SI (IC50 hMAO-A/IC50 hMAO-B)” value is on record as 65.7. In [8], the “Neurotoxicity (cell viability, MTT)” value is given as “no neurotoxicity”. In data set [9], the Acute toxicity outcome is “all animals were found alive”. For the same molecule, the “Prediction (PAMPA-BBB) (CNS+, CNS−)” value in data set [1] was “CNS+ (‘CNS+’ (prediction of high BBB permeation); Pe (10^−6 cm s^−1) > 4.39)”. The “Permeability (PAMPA-BBB) Pe(tested)” value in data set [1] (pH 7.4, 20 hours, room temperature) was 9.05 ± 0.20 10^−6 cm s^−1.
